Assay results reported in patent US11479529B2, “Compounds with antimicrobial activity” (The Hong Kong Polytechnic University, priority 2018, dated 2022).
Converted amounts (≈) assume the structure as drawn. “And” between values parts separate entries of the source, which are not always exact repeats. Equal values may be shown once.

Tests used:
NusB-NusE interaction = biological target: T1, NusB-NusE interaction (Bacillus subtilis, UniProt P54520); experiment: ELISA-based inhibitory assay of NusB-NusE heterodimer formation; type: binding, B. subtilis; settings: NusB coated plate, GST-tagged NusE probe; read-out: IC50, inhibition of the NusB-NusE interaction
T1 construct: 6xHis (N); made in house; host or cells: E. coli BL21 (DE3) pLysS
T1 sequence (P54520 whole entry): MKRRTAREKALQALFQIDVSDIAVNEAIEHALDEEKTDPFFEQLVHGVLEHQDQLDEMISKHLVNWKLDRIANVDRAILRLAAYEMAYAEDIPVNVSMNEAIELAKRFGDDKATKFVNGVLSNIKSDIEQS
Protocol: Finally, to establish MC4's mode of action at the molecular level, an enzyme-linked immunosorbant assay-based inhibitory assay was performed to assess the in vitro inhibition of NusB-NusE heterodimer formation by MC4.^24 Purified NusB was used to coat the 96-well plate, and GST-tagged NusE was used as the probe. […] With the change in the phenyl acetylene group to phenols, the IC50 values of the corresponding MC4 analogues increased, while deletion of this terminal triple bond or replacing by methyl or chloride caused a reduced IC50. When p-nitrophenol was modified to o-nitrophenol, the IC50 values increased, probably because of the involvement of the phenol group in the binding interaction with NusB Y81 (Table 3).
Protein overproduction and purification. B. subtilis NusB (wild type and mutant) and NusE-GST were overproduced from plasmids (Table 2) and purified using a similar approach to that described previously.^45 Purified proteins were dialyzed into 20 mM KH2PO4, 150 mM NaCl, 30% glycerol, pH 7.8 and stored at […].
ELISA-based assays. These assays were performed as described previously,^41 except NusB was used to coat the NUNC MaxiSorp™ 96-well plates and GST-tagged NusE used as the probe.

[1] = tested on: S. aureus ATCC 25923 cells; experiment: DNA, protein and rRNA quantitation in treated cells; type: cell-based, Staphylococcus aureus; settings: one-quarter MIC, exponential growth, versus control cells
Protocol: The level of macromolecules in S. aureus ATCC 25923 cells during exponential growth due to MC4 treatment were analyzed.
DNA, protein and rRNA quantitation. MC4, oxacillin and rifampicin at ¼ MIC level were added to S. aureus strain ATCC 25923 in LB medium at early log phase (OD595=0.2), which was then grown to mid-log phase (OD595==0.5). For DNA and protein quantitation, 1 ml cells were harvested and treated with 10 mg/ml lysozyme+0.5 mg/ml lysostaphin at RT for 1 hr before centrifugation at 13000 g/min for 3 min. The supernatant was discarded and cells lysed with 600 μl Nuclei Lysis Solution (Promega/Genomic DNA Purification Kit) for 5 min, followed by gentle sonication. The amount of DNA was quantified with Qubit dsDNA BR (broad range) and protein quantified with NanoOrange™ Protein Quantitation Kit (ThermoFisher). For rRNA quantitation, 1 ml culture was collected and treated with RNAProtect (Qiagen), before total RNA was extracted with an RNeasv Mini Kit (Qiagen). DNase I treatment was performed with a TURBO DNA-free Kit (ThermoFisher). The extracted RNA was subjected to Agilent 2100 analysis, and the level of major rRNA (the sum of 16S+23S rRNA) as percentage of total RNA. The values were compared across each treatment group. All experiments were repeated three times.

[2] = tested on: NusB variants (Y18A, D76A, and D81A); experiment: Isothermal titration calorimetry, NusB variants; type: binding, B. subtilis
Protocol: (§1) The interaction between MC4 and NusB was also biophysically quantified. […] Further experiments will be performed to resolve the structure of NusB in complex with MC4 for target validation, as well as structure-based lead optimization.
(§2) Isothermal calorimetric titration (ITC). ITC experiments were performed as described previously.^41 For compound testing, a 50 mM stock made up in DMSO was diluted to 500 μM in ITC buffer (50 mM KH2PO4, 150 mM NaCl, pH 7.4). All proteins were dialysed into ITC buffer and were supplemented with the same concentration of DMSO (1% v/v) to minimize buffer miss-match. MC4 was then titrated against 50 μM NusB wild type and mutants as described previously^41 using 1% DMSO in ITC buffer as the negative control.

S. aureus 25923 = experiment: Microdilution assay (MIC) against control strain S. aureus 25923; type: cell-based; settings: Staphylococcus aureus
Protocol: (§3) The antimicrobial activity of the seven compounds against community-acquired MRSA strain USA300 were first screened. […] With a molecular weight of 266.3, MC4 has been reported to be of use only to form a metal complex dye in optical layers for optical data recording.^26 The antimicrobial activities of MC4 against a panel of representative strains of pathogens were then tested.
(§4) Bacterial Strains and Chemicals. The following bacterial strains were used in this study for the microdilution assay: Enterococcus faecalis ATCC 29212, Klebsiella pneumonia ATCC 700603, Acinetobacter baumannii ATCC 19606, Pseudomonas aeruginosa PA01, Enterobacter cloacae ATCC 13047, E. coli ATCC 25922, Proteus vulgaris ATCC 6380, and S. aureus USA300, ATCC 25923, ATCC 29213, ST22, ST30, ST45, ST59, ST239, JE-2, BAA44. E. coli strain DH5a (Gibco BRL) was used in this study for cloning and BL21 (DE3) pLysS^23 was used for protein overproduction. 5-fluorouracil, rifampicin and other antibiotics used in the microdilution assay were purchased from SigmaAldrich. Compounds MC1-7 were purchased from MolPort.
(§5) Antibacterial activity test. Microdilution assay was performed according to the Clinical & Laboratory Standards Institute recommendations.^42 Serial 2-fold dilutions of the tested compounds and antibiotic controls were made from 256 μg/ml to 0.5 μg/ml. DMSO was included as a negative control.

[3] = tested on: healthcare acquired MRSA ST239; experiment: Microdilution assay (MIC) against healthcare acquired MRSA ST239; type: cell-based, Staphylococcus aureus
Protocol: as §3, §4, §5

[4] = Cytotoxicity assay, HaCaT; type: cell-based; settings: HaCaT immortalized human keratinocytes
Protocol: (§6) Cytotoxicity assay was performed as detailed previously^43 except A549 lung carcinoma and HaCaT immortalized human keratinocytes were used in this study.

[5] = tested on: community-acquired MRSA strain USA300; experiment: Microdilution assay (MIC) against community-acquired MRSA strain USA300; type: cell-based; settings: Staphylococcus aureus, read-out: minimum inhibitory concentration (MIC)
Protocol: as §3, §4, §5

Cytotoxicity assay, A549 = type: cell-based, human; settings: human, A549 lung carcinoma cells
Protocol: as §6

A549 lung carcinoma = experiment: Cytotoxicity assay, A549; type: cell-based, human; settings: mammalian cell lines (Table 1: A549, HaCaT), compared to 5-fluorouracil
Protocol: as §6

NusE = biological target: T2, NusE (Bacillus subtilis, UniProt P21471); experiment: Isothermal titration calorimetry, NusE; type: binding, B. subtilis
T2 construct: 3C protease site + GST (C); made in house; host or cells: E. coli BL21 (DE3) pLysS

[6] = biological target: T3, B. subtilis NusB wild type protein (Bacillus subtilis, UniProt P54520); experiment: Isothermal titration calorimetry, NusB wild type; type: binding; settings: ITC
T3 construct: 6xHis (N); made in house; host or cells: E. coli BL21 (DE3) pLysS
T3 sequence (P54520 whole entry): as above
Protocol: as §1, §2

O=[N+]([O-])c1ccc(O)c(/C=N/c2ccc(Cl)cc2)c1 [MC4-7, 2-{(E)-[(4-chlorophenyl)imino]methyl}-4-nitrophenol]
IC50 (NusB-NusE interaction): 1639 ± 12.7 µM

O=[N+]([O-])c1cccc(/C=N/c2ccccc2)c1O [MC4-1, 2-nitro-6-[(E)-(phenylimino)methyl]phenol]
IC50 (NusB-NusE interaction): 14.4 ± 2.59 µM

Cc1onc(-c2ccccc2)c1C(=O)N[C@@H]1C(=O)N2[C@@H]1SC(C)(C)[C@@H]2C(=O)O [oxacillin, reference compound]
DNA level [1]: none of the treatment affected the DNA level | protein level [1]: slightly higher than those of control cells | rRNA level (16S+23S) [1]: slightly higher than those of control cells

O=[N+]([O-])c1ccc(O)c(C=Nc2ccccc2)c1 [MC4-4, 4-nitro-2-[(phenylimino)methyl]phenol]
IC50 (NusB-NusE interaction): 147 ± 17.9 µM

C#Cc1cccc(/N=C/c2cc([N+](=O)[O-])ccc2O)c1 [MC4, (E)-2-[[(3-ethynylphenyl)imino]methyl]-4-nitrophenol]
IC50 (NusB-NusE interaction): ~34.7 µM and 34.7 µM | Binding to NusB variants by ITC [2]: could not be detected | MIC (S. aureus 25923): 8 mg/L (≈ 30 µM) | MIC [3]: 16 mg/L (≈ 60.1 µM) | DNA level [1]: none of the treatment affected the DNA level | protein level [1]: significant reduction in the protein level | rRNA level (16S+23S) [1]: significant reduction in the rRNA level | CC50 [4]: 695.1 ± 5.95 µM | MIC [5]: 64 mg/L (≈ 240 µM) | CC50 (Cytotoxicity assay, A549): 183 ± 7.71 µM | cytotoxicity against mammalian cell lines (A549 lung carcinoma): did not show significant cytotoxicity | Binding to NusE by ITC (NusE): could not be detected | N [6]: 0.988±0.076 | ΔH [6]: -29.88 ± 3.932 kJ/mol | ΔS [6]: −1.81 cal/mol/deg | Kd ([6]; one-site binding mode): 1.45 ± 0.55 µM

O=[N+]([O-])c1ccc(O)c(/C=N/c2ccc(O)cc2)c1 [MC4-6, 2-{(E)-[(4-hydroxyphenyl)imino]methyl}-4-nitrophenol]
IC50 (NusB-NusE interaction): 0.00815 µM

O=c1[nH]cc(F)c(=O)[nH]1 [5-fluorouracil, reference compound]
CC50 [4]: < 0.001 µM | CC50 (Cytotoxicity assay, A549): 0.00562 ± 2e-06 µM

Cc1cccc(/N=C/c2cc([N+](=O)[O-])ccc2O)c1 [MC4-5, 2-{(E)-[(3-methylphenyl)imino]methyl}-4-nitrophenol]
IC50 (NusB-NusE interaction): 971 ± 11.6 µM

O=[N+]([O-])c1ccc(O)c(/C=N/c2cccc(O)c2)c1 [MC4-8, 2-{(E)[(3-hydroxyphenyl)imino]methyl}-4-nitrophenol]
IC50 (NusB-NusE interaction): 0.00692 µM
